# Read-outs that look alike come from different tables or passages of the source. *1 amine or outer side, *2 acyl side, *3 side chain or, on linkers, in order; H or OH if unused. Where a SMILES comes first, the peptide text is derived from it. Bridges are numbered along the chain shown (N, C = ends). [ ]: non-standard residue; d: D form. Acbc(trans-1,3) = O=C([C@H]1C[C@H](N[*:1])C1)[*:2]; Acbc(cis-1,3) = O=C([C@H]1C[C@@H](N[*:1])C1)[*:2]; X1 = O=C([C@@H]1CCC[C@@H]1N[*:1])[*:2]
# What was measured:
# [1] = biological target: T1, Fc-tagged human IFNGR1 (Homo sapiens, UniProt P15260); assay: Binding kinetics and affinity to IFNGR1 by surface plasmon resonance (SPR); conditions: for kon: read-out: ka
# T1 construct: purchased ACROBiosystems
# T1 sequence (P15260 18-489): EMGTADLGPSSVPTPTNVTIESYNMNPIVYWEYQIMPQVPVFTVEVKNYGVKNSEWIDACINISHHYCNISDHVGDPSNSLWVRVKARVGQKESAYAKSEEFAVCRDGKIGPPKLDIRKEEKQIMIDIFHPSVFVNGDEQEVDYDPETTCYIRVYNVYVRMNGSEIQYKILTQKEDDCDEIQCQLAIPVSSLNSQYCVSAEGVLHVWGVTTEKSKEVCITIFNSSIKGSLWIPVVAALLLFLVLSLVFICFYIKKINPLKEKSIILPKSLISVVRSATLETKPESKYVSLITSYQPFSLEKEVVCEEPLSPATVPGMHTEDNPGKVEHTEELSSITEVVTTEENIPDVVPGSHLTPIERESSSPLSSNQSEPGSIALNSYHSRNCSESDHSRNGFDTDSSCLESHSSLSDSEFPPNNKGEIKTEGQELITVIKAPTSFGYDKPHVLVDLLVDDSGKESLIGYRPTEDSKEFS
# Experimental: (§1) Binding affinities of IA1 and IA2 against IFNGR1 were evaluated by surface plasmon resonance (SPR) (Table 1 and SI Figure S6A). […] To investigate the contribution of the N-terminal [yVPβ^1RR] motif and β^1 residue in IA1, three scrambled peptides IA1s1–3 and a variant IA1β^14A were synthesized and evaluated. […] We next evaluated inhibitory activities of IA1 and IA2 against the ligand–receptor PPI between IFN-γ and IFNGR1 using AlphaLISA (Table 1 and SI Figure S7).[37] […] We also determined the serum half-lives of IA1 and IA2, considering peptidase resistance as an important factor for therapeutic peptides.[24] A sample peptide and a peptidase-resistant internal standard peptide were coincubated in human serum at 37 °C, and the relative amount of the remaining sample peptide was estimated by LC/MS. […]
# Evaluation of binding affinity of peptides by surface plasmon resonance The binding affinities of selected peptides and IFNGR1 were analyzed by surface plasmon resonance (SPR) using a Biacore T200 instrument (Cytiva) at 25 °C with the following running buffer: 10 mM Tris-HCl (pH 8.0), 150 mM NaCl, 0.05% (v/v) Tween 20 , and 0.1% (v/v) DMSO. Fc-tagged IFNGR1 was immobilized on a series S sensor chip protein G (Cytiva) to a surface density of 1,200–1,600 response units following the immobilization protocols provided by Cytiva. The kinetic constants were determined by a single-cycle kinetics method by the injection of five different concentrations (twofold dilution series) of each peptide at a flow rate of 30 μL/min. The resulting sensorgrams were fitted to the standard 1:1 interaction model and analyzed using Biacore evaluation software. […]
# [2] = Serum stability assay (LC/MS); type: in vitro ADME, human; conditions: human serum, 37 °C, LC/MS, relative to internal standard peptide, n = 3, read-out: half-life in human serum (t1/2) (converted)
# Experimental: as §1
# 10–200 μM synthetic peptide and 5 μM serum-resistant internal standard peptide consisting only of D-amino acids (NH2-PEG5-wstndwstnd-PEG5-CONH2)3 were mixed and incubated in human serum (Cosmo Bio, 12181201) at 37 °C for up to 120 h. At each time point, 4 μL of the mixture was removed and quenched by adding 12 μl methanol. Following centrifugation (15,000 g, 4 °C, 5 min), 10 μL of the supernatant was mixed with 40 μl of 1% (v/v) TFA. Following centrifugation (15,000 g, 4 °C, 5 min), the supernatant was collected for LC/MS analysis, which used a reverse-phase column (ACQUITY UPLC BEH C18, 1.7 μm, 2.1 × 150 mm; Waters) and a Xevo G2-XS QTof system (Waters) with a linear gradient from 1% B to 61% B. Buffer A was water with 0.1% (v/v) formic acid; buffer B was acetonitrile with 0.1% (v/v) formic acid. The percentages of remaining peptides were determined by the peak area integration of the chromatograms. For tandem mass spectrometry, MS/MS spectra were acquired with a 0.2 s scan time, with 10−30 eV collision energy. The obtained LC/MS data was analyzed using MassLynx 4.1 (Waters). […]
# [3] = SPR, 25 °C, 1:1 binding model, read-out: KD
# [4] = SPR, 25 °C, single-cycle kinetics, 1:1 binding model
Structure (SMILES),"Kd [1, 3]","kon [1, 4]",half-life ([2]; human),Kd [1],kon [1],half-life [2]
"CC(C)[C@@H]1NC(=O)[C@H](Cc2ccc(O)cc2)NC(=O)CSC[C@@H](C(N)=O)NC(=O)[C@H](CC(N)=O)NC(=O)[C@H](CO)NC(=O)[C@H](CCCNC(=N)N)NC(=O)[C@H]2C[C@H](C2)NC(=O)[C@H](Cc2c[nH]cn2)NC(=O)[C@H](CC(N)=O)NC(=O)[C@H]([C@@H](C)O)NC(=O)[C@H](Cc2c[nH]cn2)NC(=O)[C@H](CCCNC(=N)N)NC(=O)[C@H](CCCNC(=N)N)NC(=O)[C@@H]2CCC[C@@H]2NC(=O)[C@@H]2CCCN2C1=O [IA1YC, ^AcYVPβ^1RRHTNHγ^1RSNC-NH2] ({CH2CO}-YVP[X1]RRHTNH[Acbc(cis-1,3)]RSNC-NH2; thioether N-15)",1400 ± 200 nM,3600 ± 100 M⁻¹ s⁻¹,156 ± 6 min,–,–,–
"CC(C)[C@@H]1NC(=O)[C@@H]2CCC[C@@H]2NC(=O)[C@H](CCCNC(=N)N)NC(=O)[C@H](Cc2c[nH]cn2)NC(=O)[C@@H]2CCCN2C(=O)[C@H](CCCNC(=N)N)NC(=O)[C@H]2C[C@H](C2)NC(=O)[C@H]([C@@H](C)O)NC(=O)[C@H](CCCNC(=N)N)NC(=O)[C@H](CC(N)=O)NC(=O)[C@H](CO)NC(=O)[C@@H](Cc2ccc(O)cc2)NC(=O)CSC[C@H](C(N)=O)NC(=O)[C@H](Cc2c[nH]cn2)NC(=O)[C@H](CC(N)=O)NC1=O [IA1s1, ^AcySNRTγ^1RPHRβ^1VNHc-NH2] ({CH2CO}-[dY]SNRT[Acbc(cis-1,3)]RPHR[X1]VNH[dC]-NH2; thioether N-15)",> 10000 nM,–,–,–,–,–
"CC(C)[C@@H]1NC(=O)[C@@H](Cc2ccc(O)cc2)NC(=O)CSC[C@H](C(N)=O)NC(=O)[C@H]([C@@H](C)O)NC(=O)[C@H](CC(N)=O)NC(=O)[C@H](Cc2c[nH]cn2)NC(=O)[C@H](CC(N)=O)NC(=O)[C@H](CCCNC(=N)N)NC(=O)[C@H](Cc2c[nH]cn2)NC(=O)[C@H]2C[C@H](C2)NC(=O)[C@H](CO)NC(=O)[C@H](CCCNC(=N)N)NC(=O)[C@H](CCCNC(=N)N)NC(=O)[C@@H]2CCC[C@@H]2NC(=O)[C@@H]2CCCN2C1=O [IA1s2, ^AcyVPβ^1RRSγ^1HRNHNTc-NH2] ({CH2CO}-[dY]VP[X1]RRS[Acbc(cis-1,3)]HRNHNT[dC]-NH2; thioether N-15)",2200 ± 200 nM,2200 ± 200 M⁻¹ s⁻¹,–,–,–,–
"CC(C)[C@@H]1NC(=O)[C@H](CCCNC(=N)N)NC(=O)[C@@H]2CCC[C@@H]2NC(=O)[C@@H](Cc2ccc(O)cc2)NC(=O)CSC[C@H](C(N)=O)NC(=O)[C@H](CC(N)=O)NC(=O)[C@H](CO)NC(=O)[C@H](CCCNC(=N)N)NC(=O)[C@H]2C[C@H](C2)NC(=O)[C@H](Cc2c[nH]cn2)NC(=O)[C@H](CC(N)=O)NC(=O)[C@H]([C@@H](C)O)NC(=O)[C@H](Cc2c[nH]cn2)NC(=O)[C@H](CCCNC(=N)N)NC(=O)[C@@H]2CCCN2C1=O [IA1s3, ^Acyβ^1RVPRHTNHγ^1RSNc-NH2] ({CH2CO}-[dY][X1]RVPRHTNH[Acbc(cis-1,3)]RSN[dC]-NH2; thioether N-15)",> 10000 nM,–,–,–,–,–
"CC(C)[C@@H]1NC(=O)[C@@H](Cc2ccc(O)cc2)NC(=O)CSC[C@H](C(N)=O)NC(=O)[C@H](CC(N)=O)NC(=O)[C@H](CO)NC(=O)[C@H](CCCNC(=N)N)NC(=O)[C@H]2C[C@H](C2)NC(=O)[C@H](Cc2c[nH]cn2)NC(=O)[C@H](CC(N)=O)NC(=O)[C@H]([C@@H](C)O)NC(=O)[C@H](Cc2c[nH]cn2)NC(=O)[C@H](CCCNC(=N)N)NC(=O)[C@H](CCCNC(=N)N)NC(=O)[C@H](C)NC(=O)[C@@H]2CCCN2C1=O [IA1β^14A, ^AcyVPA RRHTNHγ^1RSNc-NH2] ({CH2CO}-[dY]VPARRHTNH[Acbc(cis-1,3)]RSN[dC]-NH2; thioether N-15)",> 10000 nM,–,42.6 ± 6 min,–,–,–
"CC(C)[C@@H]1NC(=O)[C@H](Cc2ccc(O)cc2)NC(=O)CSC[C@@H](C(N)=O)NC(=O)[C@H](CCCNC(=N)N)NC(=O)[C@H](CO)NC(=O)[C@H](CCCNC(=N)N)NC(=O)[C@H](Cc2c[nH]cn2)NC(=O)CNC(=O)[C@H]2C[C@H](C2)NC(=O)[C@H](Cc2c[nH]cn2)NC(=O)[C@H](CC(N)=O)NC(=O)[C@H](CCCNC(=N)N)NC(=O)[C@H](CCCNC(=N)N)NC(=O)[C@@H]2CCC[C@@H]2NC(=O)[C@H](C)NC1=O [IB1YC, ^AcYVAβ^1RRNHγ^1GHRSRC-NH2] ({CH2CO}-YVA[X1]RRNH[Acbc(cis-1,3)]GHRSRC-NH2; thioether N-15)",1700 ± 200 nM,2200 ± 300 M⁻¹ s⁻¹,–,–,–,–
"CC(C)[C@@H]1NC(=O)[C@H](Cc2ccc(O)cc2)NC(=O)CSC[C@@H](C(N)=O)NC(=O)[C@H](CC(N)=O)NC(=O)[C@H]2C[C@@H](C2)NC(=O)[C@H](CCCNC(=N)N)NC(=O)[C@@H]2CCCN2C(=O)[C@H]([C@@H](C)O)NC(=O)[C@H](CCCNC(=N)N)NC(=O)[C@H](CCCNC(=N)N)NC(=O)[C@H](CO)NC(=O)[C@H](CCCNC(=N)N)NC(=O)[C@H](CCCNC(=N)N)NC(=O)[C@@H]2CCC[C@@H]2NC(=O)[C@@H]2CCCN2C1=O [IB4YC, ^AcYVPβ^1RRSRRTPRγ^2NC-NH2] ({CH2CO}-YVP[X1]RRSRRTPR[Acbc(trans-1,3)]NC-NH2; thioether N-15)",45 ± 5 nM,58000 ± 11000 M⁻¹ s⁻¹,55.2 ± 6.6 min,–,–,–
"CC(C)[C@@H]1NC(=O)[C@@H](Cc2ccc(O)cc2)NC(=O)CSC[C@H](C(N)=O)NC(=O)[C@H](CC(N)=O)NC(=O)[C@H]2C[C@@H](C2)NC(=O)[C@H](CCCNC(=N)N)NC(=O)[C@@H]2CCCN2C(=O)[C@H]([C@@H](C)O)NC(=O)[C@H](CCCNC(=N)N)NC(=O)[C@H](CCCNC(=N)N)NC(=O)[C@H](CO)NC(=O)[C@H](CCCNC(=N)N)NC(=O)[C@H](CCCNC(=N)N)NC(=O)[C@H](C)NC(=O)[C@@H]2CCCN2C1=O [IB4β^14A, ^AcyVPA RRSRRTPRγ^2Nc-NH2] ({CH2CO}-[dY]VPARRSRRTPR[Acbc(trans-1,3)]N[dC]-NH2; thioether N-15)",–,–,–,420 ± 120 nM,8900 ± 2100 M⁻¹ s⁻¹,30 ± 1.8 min
"CC(C)[C@@H]1NC(=O)[C@H](Cc2ccc(O)cc2)NC(=O)CSC[C@@H](C(N)=O)NC(=O)[C@H](CC(N)=O)NC(=O)[C@H](Cc2c[nH]cn2)NC(=O)[C@H](CCCNC(=N)N)NC(=O)[C@H]2C[C@@H](C2)NC(=O)[C@H]([C@@H](C)O)NC(=O)[C@H](Cc2c[nH]cn2)NC(=O)[C@@H]2CCCN2C(=O)[C@H](CO)NC(=O)[C@H](CCCNC(=N)N)NC(=O)[C@H](CCCNC(=N)N)NC(=O)[C@@H]2CCC[C@@H]2NC(=O)[C@@H]2CCCN2C1=O [IB5YC, ^AcYVPβ^1RRSPHTγ^2RHNC-NH2] ({CH2CO}-YVP[X1]RRSPHT[Acbc(trans-1,3)]RHNC-NH2; thioether N-15)",1900 ± 100 nM,16000 ± 1000 M⁻¹ s⁻¹,840 ± 120 min,–,–,–
"CC(C)[C@@H]1NC(=O)[C@@H](Cc2ccc(O)cc2)NC(=O)CSC[C@H](C(N)=O)NC(=O)[C@H](CC(N)=O)NC(=O)[C@H](Cc2c[nH]cn2)NC(=O)[C@H](CCCNC(=N)N)NC(=O)[C@H]2C[C@@H](C2)NC(=O)[C@H]([C@@H](C)O)NC(=O)[C@H](Cc2c[nH]cn2)NC(=O)[C@@H]2CCCN2C(=O)[C@H](CO)NC(=O)[C@H](CCCNC(=N)N)NC(=O)[C@H](CCCNC(=N)N)NC(=O)[C@H](C)NC(=O)[C@@H]2CCCN2C1=O [IB5β^14A, ^AcyVPA RRSPHTγ^2RHNc-NH2] ({CH2CO}-[dY]VPARRSPHT[Acbc(trans-1,3)]RHN[dC]-NH2; thioether N-15)",> 10000 nM,–,24.6 ± 1.8 min,–,–,–
